From patent publication US20040006070A1, “Intraspinal continuous infusion of midazolam hydrochloride for the treatment of pain” (priority 2002, published 2004)
Several values for one entry are separate records, joined by “and”; a condition that tells them apart may be missing. Identical values can stand only once. Entries after “also recorded” stand apart in the source; their conditions may differ. Counter-ions that a name gives are not always drawn.

Columns and labels:
[1] = Physiological data: indirect blood pressure, pulse, rectal temperature, weight; format: in vivo, sheep
Excerpt: (§1) Daily rectal temperatures were taken and any behavioral/motor changes were noted. Gait monitoring will be conducted as described below based on a four-grade scale for the evaluation of behavioral and motor changes. Grade 0: animal standing, sheep is able to rise and ambulate without any difficulty. Grade 1: Shuffling of either rear leg or slight limp; slight distortion of normal spinal axis. Grade 2: Loss of righting reflex in one of the rear legs, sheep able to stand without assistance, but with some difficulty. Grade 3: Inability to maintain standing posture; attempts to help animal stand are unsuccessful.
Indirect blood pressure, pulse recording, pain testing (mechanical stimulus device, cold and warm water baths see description in procedure) and weight were taken on days 1, 3, 7, 15, 22, 29, 36, and 43. Venous blood samples (15 ml drawn from the jugular vein with Vacutainer brand blood collection tubes) for complete blood count, electrolytes, and extended blood chemistry were drawn on days 1, 15, and 43 (mild procedure only light hand restraint necessary).

[2] = CSF fluid analysis and routine cultures; format: in vivo, sheep; conditions: for CSF RBC Count Post Mortum / CSF WBC Count Post Mortum / CSF Glucose Post Mortum / CSF Total Protein Post Mortum: day 43
Protocol: On day 43 after venous blood samples were taken, animals were euthanized (Beuthanasia 1 ml/4.5 kg IV bolus injection). CSF samples were obtained for analysis (1-2 ml drawn from L-7/S-1 after a laminectomy was performed to expose the dura) of glucose, total protein, and cell differential.

[3] = rabbit, intrathecal bolus 0.1% midazolam or preservative-free midazolam in 0.3 ml, one or five days; cited from earlier work
[4] = Gait monitoring, four-grade scale of behavioral and motor changes; format: in vivo, sheep; set-up: key: Grade 0: animal standing, sheep is able to rise and ambulate without any difficulty; Grade 1: Shuffling of either rear leg or slight limp; slight distortion of normal spinal axis; Grade 2: Loss of righting reflex in one of the rear legs, sheep able to stand without assistance, but with some difficulty; Grade 3: Inability to maintain standing posture; attempts to help animal stand are unsuccessful; conditions: day (1-43)
Excerpt: as §1

[5] = double blinded sheep Chicken Hawk #87, 5 mg/day intrathecal infusion, day (1-43), hydrochloride
[6] = double blinded sheep Elmer Fudd #437, 5 mg/day intrathecal infusion, day (1-43), hydrochloride
[7] = double blinded sheep Leghorn II #815, 15 mg/day intrathecal infusion, day (1-43), hydrochloride
[8] = double blinded sheep Petunia #439, 15 mg/day intrathecal infusion, day (1-43), hydrochloride
[9] = double blinded sheep Porky #402, 5 mg/day intrathecal infusion, day (1-43), hydrochloride
[10] = double blinded sheep Roadrunner #84, 15 mg/day intrathecal infusion, day (1-43), hydrochloride
[11] = open label sheep #457 Tazz, 15 mg/day intrathecal infusion, day (1-43), hydrochloride
[12] = open label sheep #498 Toad, 10 mg/day intrathecal infusion, day (1-43), hydrochloride
[13] = open label sheep #518 Sandy, 5 mg/day intrathecal infusion, day (1-43), hydrochloride
[14] = open label sheep Dot #85, 15 mg/day intrathecal infusion, day (1-43), hydrochloride
[15] = open label sheep Wacko #83, 15 mg/day intrathecal infusion, day (1-43), hydrochloride
[16] = open label sheep Yacko #91, 15 mg/day intrathecal infusion, day (1-43), hydrochloride
[17] = CSF, double blinded study, individual sheep, dose group not given, hydrochloride
[18] = open label sheep Red #473, 3 mg/day
[19] = open label sheep Sandy #518, 5 mg/day
[20] = open label sheep Toad #498, 10 mg/day

## Cc1ncc2n1-c1ccc(Cl)cc1C(c1ccccc1F)=NC2 [Midazolam, midazolam hydrochloride]
[1]; [5]
  Blood pressure Dia: 62 and 37 and 53 and 51 and 44 and 65 and 69 and 48
  Blood pressure Sys: 112 and 127 and 122 and 132 and 130 and 126 and 151
  Body Temp. Normal 101.3-104.0: 102.4 and 102.6 and 102.8 and 102.2 and 102.0
  Pulse Rate Normal 55-115: 75 and 83 and 63 and 101 and 79 and 88 and 84 and 82
[1]; [6]
  Blood pressure Sys: 122 and 138 and 119 and 131 and 150 and 136 and 139 and 120
  Body Temp. Normal 101.3-104.0: 102.2 and 102.8 and 101.4 and 102.0 and 101.8
  Pulse Rate Normal 55-115: 87 and 70 and 80 and 83 and 79 and 73 and 85
[1]; [7]
  Blood pressure Sys: 130 and 152 and 143 and 160 and 138 and 145
  Body Temp. Normal 101.3-104.0: 104.2 and 102.4 and 102.8 and 102.2 and 102.6
  Pulse Rate Normal 55-115: 111 and 144 and 88 and 125 and 121 and 97 and 89 and 87
[1]; [8]
  Blood pressure Dia: 34 and 49 and 44 and 32 and 26 and 45
  Blood pressure Sys: 133 and 152 and 126 and 132 and 123 and 114 and 120 and 142
  Body Temp. Normal 101.3-104.0: 102.0 and 102.8 and 103.0 and 101.0 and 102.4
  Pulse Rate Normal 55-115: 89 and 72 and 74 and 69 and 66 and 63 and 71 and 90
[1]; [9]
  Blood pressure Dia: 65 and 70 and 42 and 67 and 55 and 68 and 41 and 40
  Blood pressure Sys: 148 and 107 and 140 and 133 and 113 and 135 and 134 and 147
  Body Temp. Normal 101.3-104.0: 102.0 and 102.6 and 101.0 and 101.2 and 102.2
  Pulse Rate Normal 55-115: 87 and 99 and 89 and 100 and 90 and 86 and 108
[1]; [10]
  Blood pressure Dia: 75 and 77 and 49 and 42 and 50 and 51 and 40
  Blood pressure Sys: 137 and 124 and 132 and 116 and 144
  Body Temp. Normal 101.3-104.0: 101.8 and 101.6 and 102.2 and 104.0 and 102.4 and 102.0 and 102.6
  Pulse Rate Normal 55-115: 90 and 97 and 104 and 78 and 94 and 130 and 124 and 77
[1]; [11]
  Blood pressure Dia: 83 and 71 and 68 and 70 and 73 and 88
  Blood pressure sys: 151 and 154 and 145 and 147 and 135
  Body Temp. Normal 101.3-104.0: 100.8 and 102.2 and 103.0 and 102.0
  Pulse Rate Normal 55-115: 138 and 77 and 74 and 76 and 79 and 82
[1]; [12]
  Blood pressure Dia: 98 and 73 and 66 and 109 and 71 and 59 and 58
  Blood pressure Sys: 177 and 143 and 136 and 156 and 153 and 118 and 149
  Body Temp. Normal 101.3-104.0: 102.0 and 104.2 and 102.8 and 102.4 and 101.8 and 103.0 and 103.2
  Pulse Rate Normal 55-115: 98 and 79 and 95 and 77 and 104 and 67 and 89 and 78
[1]; [13]
  Blood pressure Sys: 180 and 150 and 141 and 152 and 147 and 169 and 164 and 185
  Body Temp. Normal 101.3-104.0: 102.0 and 101.0 and 101.8 and 101.6 and 102.8
[1]; [14]
  Blood pressure Dia: 68 and 49 and 67 and 59 and 53 and 77 and 57 and 69
  Blood pressure Sys: 128 and 109 and 110 and 133 and 130 and 120 and 155
  Pulse Rate Normal 55-115: 92 and 89 and 86 and 117 and 85 and 72 and 66 and 71
[1]; [15]
  Blood pressure Dia: 60 and 45 and 47 and 42 and 51 and 66 and 73 and 70
  Blood pressure Sys: 148 and 166 and 130 and 106 and 102 and 132 and 163 and 128
  Body Temp. Normal 101.3-104.0: 102.0 and 102.4 and 102.6
  Pulse Rate Normal 55-115: 104 and 98 and 91 and 92 and 99 and 84 and 75
[1]; [16]
  Blood pressure Sys: 138 and 143 and 156 and 110 and 151 and 160 and 149
  Pulse Rate Normal 55-115: 115 and 80 and 84 and 86 and 72 and 82 and 66 and 69
[1]; sheep Rowdy #819, 10 mg
  Blood pre-assure: 136/75
  Pulse: 122
[1]; sheep Rowdy #819, 15 mg
  Blood pre-assure: 143/77
  Pulse: 94
  Respirations per minute: 40 per minute
[2]; CSF, double blinded study, individual sheep, dose group (5 or 15 mg/day or saline) not given, hydrochloride
  Gross Exam Post Mortum: cloudy; also recorded: Colorless; also recorded: clear; also recorded: Pale pink; also recorded: Cloudy**
[2]; [17]
  Glucose Post Mortum: 35 mg/dL and 25 mg/dL and 31 mg/dL and 38 mg/dL and 24 mg/dL and 47 mg/dL and 34 mg/dL
  RBC Count Post Mortum: 480 µL⁻¹ and 725 µL⁻¹ and 4250 µL⁻¹ and 63 µL⁻¹ and 2 µL⁻¹ and 4 µL⁻¹ and 1325 µL⁻¹
  Total Protein Post Mortum: 73 mg/dL and 40 mg/dL and 47 mg/dL and 35 mg/dL and 59 mg/dL and 39 mg/dL and 42 mg/dL
  WBC Count Post Mortum: 12 µL⁻¹ and 80 µL⁻¹ and 22 µL⁻¹ and 8 µL⁻¹ and 1 µL⁻¹ and 4 µL⁻¹ and 29 µL⁻¹
[2]; CSF, individual sheep, cell wraps 'No' / 'Growth', dose group not given
  Routine Cultures Post Mortum: No
[2]; [18]
  CSF RBC Count Post Mortum: 772 µL⁻¹
  CSF WBC Count Post Mortum: 4 µL⁻¹
[2]; [19]
  CSF Glucose Post Mortum: 36 mg/dL
  CSF RBC Count Post Mortum: 56 µL⁻¹
  CSF Total Protein Post Mortum: 46.1 mg/dL
  CSF WBC Count Post Mortum: 206 µL⁻¹
[2]; [20]
  CSF Glucose Post Mortum: 40 mg/dL
  CSF RBC Count Post Mortum: 2160 µL⁻¹
  CSF Total Protein Post Mortum: 39.6 mg/dL
  CSF WBC Count Post Mortum: 36 µL⁻¹
[3]
  neurotoxicity: neurotoxicity
[4]; double blinded sheep Chicken Hawk #87, 5 mg/day intrathecal infusion
  Gait Normal 0: 0
[4]; double blinded sheep Elmer Fudd #437, 5 mg/day intrathecal infusion
  Gait Normal 0: 0
[4]; double blinded sheep Leghorn II #815, 15 mg/day intrathecal infusion
  Gait Normal 0: 0
[4]; double blinded sheep Petunia #439, 15 mg/day intrathecal infusion
  Gait Normal 0: 0
[4]; double blinded sheep Porky #402, 5 mg/day intrathecal infusion
  Gait Normal 0: 0
[4]; double blinded sheep Roadrunner #84, 15 mg/day intrathecal infusion
  Gait Normal 0: 0
[4]; open label sheep #457 Tazz, 15 mg/day intrathecal infusion
  Gait Normal 0: 0
[4]; open label sheep #498 Toad, 10 mg/day intrathecal infusion
  Gait Normal 0: 0
[4]; open label sheep #518 Sandy, 5 mg/day intrathecal infusion
  Gait Normal 0: 0
[4]; open label sheep Dot #85, 15 mg/day intrathecal infusion
  Gait Normal 0: 0
[4]; open label sheep Wacko #83, 15 mg/day intrathecal infusion
  Gait Normal 0: 0
[4]; open label sheep Yacko #91, 15 mg/day intrathecal infusion
  Gait Normal 0: 0
